# PMC10854894, “A New Benzo[6,7]oxepino[3,2-b] Pyridine Derivative Induces Apoptosis in Canine Mammary Cancer Cell Lines” (Animals : an Open Access Journal from MDPI, 2024)
# Read-outs that look alike come from different tables or passages of the source.
# How the values were obtained:
# Format in all cases: cell-based, canine
# CMGT071020 cells [1] = assay: MTT cell proliferation/cytotoxicity assay; conditions: Canis lupus familiaris, read-out: Half-Maximal Inhibitory Concentration (IC50)
# Protocol: (§1) The cytotoxic effects of the three BZOP derivatives were studied via the 3-(4,5-Dimethyl-2-thiazolyl)-2,5-diphenyl-2H-tetrazolium bromide (MTT) assay. The REM134, CMGT071020, and MDCK cell lines were seeded at a density of 5 × 10^3 cells/well in 96-well plates and allowed to grow for 24 h. They were then treated with the three BZOP derivatives at various concentrations (0–300 µM) for 24 or 48 h, whereas cells treated with the culture medium containing 0.1% dimethyl sulfoxide (DMSO) were used as a negative control as the compounds were dissolved in DMSO. Subsequently, the cells were incubated with 10 µL of an MTT solution (Sigma, St. Louis, MO, USA) for 4 h. After the incubation with MTT solution, 100 µL of a solubilization solution was added to dissolve water-insoluble purple formazan crystals, and the plate was incubated overnight at 37 °C in 5% CO2. The absorbance of the formazan solution was measured using a Synergy H1 hybrid multi-mode microplate reader (BioTek, Winooski, VT, USA) at 570 nm. The experiment was conducted with four replicates, and the relative cell viability (%) of the treated cells was expressed as a percentage relative to the untreated control cells, which were considered to have 100% viability.
# MDCK cells = assay: MTT cell proliferation/cytotoxicity assay; conditions: Canis lupus familiaris, read-out: Half-Maximal Inhibitory Concentration (IC50)
# Protocol: as §1
# REM134 cells [2] = assay: MTT cell proliferation/cytotoxicity assay; conditions: Canis lupus familiaris, read-out: Half-Maximal Inhibitory Concentration (IC50)
# Protocol: as §1
# CMGT071020 cells [3] = assay: Transwell migration assay; conditions: 24 h, vs control (0.1% DMSO)
# Protocol: (§2) The CMC cell migration assay was carried out using Transwell 24-well microplates with an 8 µm pore size (Costar, Corning, NY, USA). Both CMC cell lines were seeded into the upper Transwell insert at a density of 5 × 10^3 cells/well, containing various concentrations of MPOBA (0–200 µM) with 5% FBS in DMEM media. Then, 10% FBS in DMEM medium was added into the lower chambers, and the cells were incubated for 24 h. After an incubation duration of 24 h, the non-invaded cells were removed with a cotton swab from the upper surface of the membrane, and the invaded cells on the lower surface of the membrane were fixed with 100% methanol for 1 min and stained with the Wright–Giemsa stain for 20 min. The number of migrated cells was averaged by counting five random microscope fields for each sample at 4 × magnification in four independent experiments.
# REM134 cells [4] = assay: Transwell migration assay; conditions: 24 h, vs control (0.1% DMSO)
# Protocol: as §2
# CMGT071020 cells [5] = assay: Relative mRNA expression by qRT-PCR
# Protocol: (§3) After the treatment of the cells with MPOBA at varying concentrations from 0 to 200 µM for 48 h, the total RNA was isolated using a GeneJet RNA Purification kit (Thermo Fisher Scientific, Waltham, MA, USA) according to the manufacturer’s protocol for adherent tissue culture cells using the spin-column method. The RNA’s concentration and purity (A260/A280 ratio) were spectrophotometrically determined using a NanoDrop One/OneC Microvolume UV-Vis Spectrophotometer (Thermo Fisher Scientific, Waltham, MA, USA). To remove genomic DNA contamination, the samples were treated with RQ1 RNase-Free DNase (Promega, Madison, WI, USA) according to the manufacturer’s instructions. First-strand cDNA was obtained using a SuperScript® III First-Strand Synthesis kit for reverse-transcription polymerase chain reaction (RT-PCR) (Invitrogen, Carlsbad, CA, USA) according to the manufacturer’s protocol. Briefly, total RNA (1 μg), oligo (dT) primers (50 µM), a dNTP mix (10 mM), the cDNA synthesis mix, and nuclease-free water were added to obtain a final volume of 20 µL. PCR amplification was performed using a G-Storm GS482 PCR thermal cycler (Gene Technologies, Somerset, UK) with the following reaction profile: 65 °C for 5 min, 50 °C for 50 min, 85 °C for 5 min, and 37 °C for 5 min. The relative mRNA expression levels of canine SNAIL, SLUG, TWIST, E-cadherin, N-cadherin, TP53, EGFR, BAX, and BCL-2 were normalized to canine glyceraldehyde 3-phosphate dehydrogenase (GAPDH). The relative mRNA expression levels were calculated using the 2^–∆∆ Cq method. The transcriptional levels of all genes were determined in four replicates via qRT-PCR using a CFX 96 Touch real-time PCR detection system (Bio-Rad, Hercules, CA, USA). The qRT-PCR was performed using a reaction mixture containing 2 μL of the cDNA template, 10 μL of the iTaq Universal SYBR Green Supermix (Bio-Rad, Hercules, CA, USA), and 1 μL of each primer. The qRT-PCR protocol for the SNAIL, SLUG, TWIST, EGFR, TP53, BAX, BCL-2, and GAPDH genes was carried out as follows: initial denaturation at 94 °C for 3 min, denaturation at 94 °C for 15 s, annealing at 60 °C for 30 s, and extension at 72 °C for 1 min (40 cycles), and dissociation curves were generated between 65 °C and 95 °C to assess the specificity of the amplicons. The qRT-PCR protocol for E-cadherin and N-cadherin was carried out according to Yu et al..
# REM134 cells [6] = assay: Relative mRNA expression by qRT-PCR
# Protocol: as §3
# [7] = CMGT071020, 200 µM, 48 h, vs control
# [8] = REM134, 200 µM, 48 h, vs control
# [9] = REM134, 48 h, treated vs untreated
smiles,measurement,setting,value
"Cc1ncccc1Oc1ccccc1C=O [MPOBA, 2-((2-methylpyridin-3-yl)oxy)benzaldehyde]",IC50,"CMGT071020 cells [1]; CMGT071020, 24 h",> 300 µM
same,IC50,"CMGT071020 cells [1]; CMGT071020, 48 h",104 µM
same,IC50,MDCK cells; 24 h,> 300 µM
same,IC50,MDCK cells; 48 h,267 µM
same,IC50,"REM134 cells [2]; REM134, 24 h",265 µM
same,IC50,"REM134 cells [2]; REM134, 48 h",87 µM
same,percentage of migrated cells,"CMGT071020 cells [3]; CMGT071020, 100 µM",68%
same,percentage of migrated cells,"CMGT071020 cells [3]; CMGT071020, 200 µM",40%
same,percentage of migrated cells,"REM134 cells [4]; REM134, 100 µM",35%
same,percentage of migrated cells,"REM134 cells [4]; REM134, 200 µM",26%
same,BAX mRNA expression level,CMGT071020 cells [5]; [7],dramatically increased
same,BCL-2 mRNA expression level,CMGT071020 cells [5]; [7],significantly decreased
same,TP53 mRNA expression level,CMGT071020 cells [5]; [7],significantly increased
same,TWIST mRNA expression level,"CMGT071020 cells [5]; CMGT071020, 48 h, treated vs untreated",not significantly different
same,E-cadherin mRNA expression level,"CMGT071020 cells [5]; CMGT071020, 48 h, vs control",upregulation
same,EGFR mRNA expression level,"CMGT071020 cells [5]; CMGT071020, 48 h, vs control",significantly decreased
same,N-cadherin mRNA expression level,"CMGT071020 cells [5]; CMGT071020, 48 h, vs control",significant downregulation
same,SLUG mRNA expression level,"CMGT071020 cells [5]; CMGT071020, 48 h, vs control",significant downregulation
same,SNAIL mRNA expression level,"CMGT071020 cells [5]; CMGT071020, 48 h, vs control",significant downregulation
same,BAX mRNA expression level,REM134 cells [6]; [8],dramatically increased
same,BCL-2 mRNA expression level,REM134 cells [6]; [8],significantly decreased
same,TP53 mRNA expression level,REM134 cells [6]; [8],significantly increased
same,SLUG mRNA expression level,REM134 cells [6]; [9],not significantly different
same,TWIST mRNA expression level,REM134 cells [6]; [9],not significantly different
same,E-cadherin mRNA expression level,"REM134 cells [6]; REM134, 48 h, vs control",upregulation
same,EGFR mRNA expression level,"REM134 cells [6]; REM134, 48 h, vs control",significantly decreased
same,N-cadherin mRNA expression level,"REM134 cells [6]; REM134, 48 h, vs control",significant downregulation
same,SNAIL mRNA expression level,"REM134 cells [6]; REM134, 48 h, vs control",significant downregulation
